ChEMBL document CHEMBL3885881, “DrugMatrix”

Species: Rattus norvegicus
Assay: DrugMatrix - Regimen: Daily Repeat
Type: toxicity, organism-based, Sprague-Dawley
Design: regimen Daily Repeat, gender Male, age 6-8 weeks
Conditions: in vivo, po, 0 mg/kg, route oral GAVAGE, dose level Control, vehicle .5 % CMC; for ABSOLUTE BASOPHIL / ABSOLUTE EOSINOPHIL / ABSOLUTE LYMPHOCYTE / ABSOLUTE MONOCYTE / ABSOLUTE SEGMENTED NEUTROPHIL / BASOPHIL / EOSINOPHIL / ERYTHROCYTE COUNT / HEMATOCRIT / HEMOGLOBIN / LEUKOCYTE COUNT / LYMPHOCYTE / MEAN CORPUSCULAR HEMOGLOBIN / MEAN CORPUSCULAR HEMOGLOBIN CONCENTRATION / MEAN CORPUSCULAR VOLUME / MONOCYTE / NEUTROPHIL / NUCLEATED RED BLOOD CELLS / PLATELET COUNT: tissue Blood; for ALANINE AMINOTRANSFERASE / ALBUMIN / ALKALINE PHOSPHATASE / ASPARTATE AMINOTRANSFERASE / BLOOD UREA NITROGEN / CARBON DIOXIDE / CHLORIDE / CHOLESTEROL / CREATININE / GLUCOSE / LACTATE DEHYDROGENASE / LIPASE / PHOSPHORUS / POTASSIUM / SODIUM / TOTAL BILIRUBIN / TOTAL PROTEIN / URIC ACID: tissue Plasma

Structure (SMILES): COc1ccccc1[N+](=O)[O-] [2-NITROANISOLE]
- ABSOLUTE BASOPHIL (72 h, time 3 day): 0 CELLS/uL
- ABSOLUTE EOSINOPHIL (72 h, time 3 day): 279.83 CELLS/uL
- ABSOLUTE LYMPHOCYTE (72 h, time 3 day): 13152.5 CELLS/uL
- ABSOLUTE MONOCYTE (72 h, time 3 day): 1013.83 CELLS/uL
- ABSOLUTE SEGMENTED NEUTROPHIL (72 h, time 3 day): 2420.5 CELLS/uL
- BASOPHIL (72 h, time 3 day): 0%
- EOSINOPHIL (72 h, time 3 day): 1.67%
- ERYTHROCYTE COUNT (72 h, time 3 day): 5.26 x10E6/uL
- HEMATOCRIT (72 h, time 3 day): 32.22%
- HEMOGLOBIN (72 h, time 3 day): 12.02 G/DL
- LEUKOCYTE COUNT (72 h, time 3 day): 16.87 x10E3/uL
- LYMPHOCYTE (72 h, time 3 day): 77.83%
- MEAN CORPUSCULAR HEMOGLOBIN (72 h, time 3 day): 22.93 pg
- MEAN CORPUSCULAR HEMOGLOBIN CONCENTRATION (72 h, time 3 day): 37.32 G/DL
- MEAN CORPUSCULAR VOLUME (72 h, time 3 day): 61.4 fL
- MONOCYTE (72 h, time 3 day): 6%
- NEUTROPHIL (72 h, time 3 day): 14.5%
- NUCLEATED RED BLOOD CELLS (72 h, time 3 day): 0 /100WBC
- PLATELET COUNT (72 h, time 3 day): 1122.17 x10E3/uL
- ALANINE AMINOTRANSFERASE (72 h, time 3 day): 55.67 u/L
- ALBUMIN (72 h, time 3 day): 4.35 G/DL
- ALKALINE PHOSPHATASE (72 h, time 3 day): 362.67 u/L
- ASPARTATE AMINOTRANSFERASE (72 h, time 3 day): 96 u/L
- BLOOD UREA NITROGEN (72 h, time 3 day): 18 mg/dL
- CARBON DIOXIDE (72 h, time 3 day): 27.5 mmol/L
- CHLORIDE (72 h, time 3 day): 100.17 MEQ/L
- CHOLESTEROL (72 h, time 3 day): 74.5 mg/dL
- CREATININE (72 h, time 3 day): 0.17 mg/dL
- GLUCOSE (72 h, time 3 day): 141.67 mg/dL
- LACTATE DEHYDROGENASE (72 h, time 3 day): 682.5 u/L
- LIPASE (72 h, time 3 day): 10 u/L
- PHOSPHORUS (72 h, time 3 day): 11.5 mg/dL
- POTASSIUM (72 h, time 3 day): 6.41 MEQ/L
- SODIUM (72 h, time 3 day): 141.2 MEQ/L
- TOTAL BILIRUBIN (72 h, time 3 day): 0.18 mg/dL
- TOTAL PROTEIN (72 h, time 3 day): 5.88 G/DL
- URIC ACID (72 h, time 3 day): 1.4 mg/dL
- ABSOLUTE BASOPHIL (120 h, time 5 day): 0 CELLS/uL
- ABSOLUTE EOSINOPHIL (120 h, time 5 day): 18.5 CELLS/uL
- ABSOLUTE LYMPHOCYTE (120 h, time 5 day): 8146.83 CELLS/uL
- ABSOLUTE MONOCYTE (120 h, time 5 day): 204.83 CELLS/uL
- ABSOLUTE SEGMENTED NEUTROPHIL (120 h, time 5 day): 1329.83 CELLS/uL
- BASOPHIL (120 h, time 5 day): 0%
- EOSINOPHIL (120 h, time 5 day): 0.17%
- ERYTHROCYTE COUNT (120 h, time 5 day): 5.37 x10E6/uL
- HEMATOCRIT (120 h, time 5 day): 33.17%
- HEMOGLOBIN (120 h, time 5 day): 12.07 G/DL
- LEUKOCYTE COUNT (120 h, time 5 day): 9.7 x10E3/uL
- LYMPHOCYTE (120 h, time 5 day): 85.33%
- MEAN CORPUSCULAR HEMOGLOBIN (120 h, time 5 day): 22.52 pg
- MEAN CORPUSCULAR HEMOGLOBIN CONCENTRATION (120 h, time 5 day): 36.42 G/DL
- MEAN CORPUSCULAR VOLUME (120 h, time 5 day): 61.78 fL
- MONOCYTE (120 h, time 5 day): 1.83%
- NEUTROPHIL (120 h, time 5 day): 12.67%
- NUCLEATED RED BLOOD CELLS (120 h, time 5 day): 0 /100WBC
- PLATELET COUNT (120 h, time 5 day): 907.5 x10E3/uL
- ALANINE AMINOTRANSFERASE (120 h, time 5 day): 58.5 u/L
- ALBUMIN (120 h, time 5 day): 4.4 G/DL
- ALKALINE PHOSPHATASE (120 h, time 5 day): 377.67 u/L
- ASPARTATE AMINOTRANSFERASE (120 h, time 5 day): 140.33 u/L
- BLOOD UREA NITROGEN (120 h, time 5 day): 15.33 mg/dL
- CARBON DIOXIDE (120 h, time 5 day): 32.17 mmol/L
- CHLORIDE (120 h, time 5 day): 100 MEQ/L
- CHOLESTEROL (120 h, time 5 day): 71.83 mg/dL
- CREATININE (120 h, time 5 day): 0.18 mg/dL
- GLUCOSE (120 h, time 5 day): 185 mg/dL
- LACTATE DEHYDROGENASE (120 h, time 5 day): 241.5 u/L
- LIPASE (120 h, time 5 day): 9.5 u/L
- PHOSPHORUS (120 h, time 5 day): 13.02 mg/dL
- POTASSIUM (120 h, time 5 day): 6.45 MEQ/L
- SODIUM (120 h, time 5 day): 143.45 MEQ/L
- TOTAL BILIRUBIN (120 h, time 5 day): 0.22 mg/dL
- TOTAL PROTEIN (120 h, time 5 day): 6.1 G/DL
- URIC ACID (120 h, time 5 day): 1 mg/dL
- ABSOLUTE BASOPHIL ([…], time 14 day): 0 CELLS/uL
- ABSOLUTE EOSINOPHIL ([…], time 14 day): 117.17 CELLS/uL
- ABSOLUTE LYMPHOCYTE ([…], time 14 day): 13562 CELLS/uL
- ABSOLUTE MONOCYTE ([…], time 14 day): 534.83 CELLS/uL
- ABSOLUTE SEGMENTED NEUTROPHIL ([…], time 14 day): 2486 CELLS/uL
- BASOPHIL ([…], time 14 day): 0%
- EOSINOPHIL ([…], time 14 day): 0.83%
- ERYTHROCYTE COUNT ([…], time 14 day): 6.14 x10E6/uL
- HEMATOCRIT ([…], time 14 day): 36.87%
- HEMOGLOBIN ([…], time 14 day): 13.87 G/DL
- LEUKOCYTE COUNT ([…], time 14 day): 16.7 x10E3/uL
- LYMPHOCYTE ([…], time 14 day): 81%
- MEAN CORPUSCULAR HEMOGLOBIN ([…], time 14 day): 22.63 pg
- MEAN CORPUSCULAR HEMOGLOBIN CONCENTRATION ([…], time 14 day): 37.62 G/DL
- MEAN CORPUSCULAR VOLUME ([…], time 14 day): 60.15 fL
- MONOCYTE ([…], time 14 day): 3.17%
- NEUTROPHIL ([…], time 14 day): 15%
- NUCLEATED RED BLOOD CELLS ([…], time 14 day): 0 /100WBC
- PLATELET COUNT ([…], time 14 day): 974.83 x10E3/uL
- ALANINE AMINOTRANSFERASE ([…], time 14 day): 52.33 u/L
- ALBUMIN ([…], time 14 day): 4.48 G/DL
- ALKALINE PHOSPHATASE ([…], time 14 day): 346.17 u/L
- ASPARTATE AMINOTRANSFERASE ([…], time 14 day): 81 u/L
- BLOOD UREA NITROGEN ([…], time 14 day): 15.67 mg/dL
- CARBON DIOXIDE ([…], time 14 day): 34.33 mmol/L
- CHLORIDE ([…], time 14 day): 100.17 MEQ/L
- CHOLESTEROL ([…], time 14 day): 70.83 mg/dL
- CREATININE ([…], time 14 day): 0.22 mg/dL
- GLUCOSE ([…], time 14 day): 141.17 mg/dL
- LACTATE DEHYDROGENASE ([…], time 14 day): 121.33 u/L
- LIPASE ([…], time 14 day): 8.33 u/L
- PHOSPHORUS ([…], time 14 day): 9.97 mg/dL
- POTASSIUM ([…], time 14 day): 6.4 MEQ/L
- SODIUM ([…], time 14 day): 143.72 MEQ/L
- TOTAL BILIRUBIN ([…], time 14 day): 0.22 mg/dL
- TOTAL PROTEIN ([…], time 14 day): 6.45 G/DL
- URIC ACID ([…], time 14 day): 1.25 mg/dL
